Where two headings read alike, the source gives them in different places.
Assays:
[1] = rat, in vivo, po
[2] = test system: 3T3-L1 cells; experiment: Adipocyte differentiation and Oil Red O staining; type: cell-based; settings: 1 or 10 μM, Oil Red O staining on day 8
[3] = male, Sprague-Dawley, rat, po
[4] = test system: UMR 106 cells; experiment: Alkaline phosphatase; type: cell-based; settings: 0.01, 0.1, 1 μM, 48 h
[5] = in vivo; settings: male, Sprague-Dawley, rat, po
[6] = test system: UMR106 cells; experiment: MTT cell proliferation assay; type: cell-based; settings: 0.01, 0.1, 1, 10 μM, 24 h

For `CC(C)=CCc1cc2c(cc1O)oc(=O)c1c3ccc(O)cc3oc21` [Psoralidin, psoralidin], the “AUC0–∞” value ([1]; 6 g/kg) was 11.58 ± 0.94 ng·h/mL, the AUC(0-t) ([1]; 6 g/kg) was 8.80 ± 1.38 ng·h/mL and the “MRT0–t” value ([1]; 6 g/kg) was 1.78 ± 0.36 h. For the same molecule, the “MRT0–∞” value ([1]; 6 g/kg) was 3.13 ± 0.36 h, the “AUC0–∞” value ([1]; 12 g/kg) was 34.27 ± 16.04 ng·h/mL and the AUC(0-t) ([1]; 12 g/kg) was 27.78 ± 13.97 ng·h/mL. The “MRT0–t” value ([1]; 12 g/kg) was 2.05 ± 0.45 h, the “MRT0–∞” value ([1]; 12 g/kg) was 2.78 ± 0.68 h and the “effect on adipogenesis of 3T3-L1 cells” value [2] was “obviously inhibited adipocyte formation”.

For `O=c1ccc2ccc3occc3c2o1` [Isopsoralen, isopsoralen], the AUC(0-inf) ([3]; in vivo, 3 g/kg) was 2470 ± 494 ng·h/mL, the AUC(0-t) ([3]; in vivo, 3 g/kg) was 2390 ± 460 ng·h/mL and the Cmax ([3]; in vivo, 3 g/kg) was 270 ± 35 ng/mL. The MRT inf ([3]; in vivo, 3 g/kg) was 8.73 ± 3.76 h, the MRT last ([3]; in vivo, 3 g/kg) was 7.49 ± 2.83 h and the Tmax ([3]; in vivo, 3 g/kg) was 3.5 ± 2.49 h. For the same molecule, the half-life ([3]; in vivo, 3 g/kg) was 6.88 ± 4.89 h, the AUC(0-t) ([3]; in vivo, 6 g/kg) was 15100 ± 1290 ng·h/mL and the Cmax ([3]; in vivo, 6 g/kg) was 1140 ± 100 ng/mL. The MRT inf ([3]; in vivo, 6 g/kg) was 12.2 ± 0.75 h, the MRT last ([3]; in vivo, 6 g/kg) was 11.7 ± 0.83 h and the Tmax ([3]; in vivo, 6 g/kg) was 3.67 ± 0.52 h. For the same molecule, the half-life ([3]; in vivo, 6 g/kg) was 6.78 ± 1.09 h, the AUC(0-inf) ([3]; in vivo, 12 g/kg) was 19900 ± 2020 ng·h/mL and the AUC(0-t) ([3]; in vivo, 12 g/kg) was 19400 ± 2000 ng·h/mL. It also gave a Cmax ([3]; in vivo, 12 g/kg) of 1240 ± 72.2 ng/mL, an MRT inf ([3]; in vivo, 12 g/kg) of 14.2 ± 1.43 h and an MRT last ([3]; in vivo, 12 g/kg) of 13.3 ± 0.43 h. For the same molecule, the Tmax ([3]; in vivo, 12 g/kg) was 1.67 ± 0.41 h and the half-life ([3]; in vivo, 12 g/kg) was 6.86 ± 3.44 h.

For `C=C[C@H]1[C@H](O[C@@H]2O[C@H](CO)[C@@H](O)[C@H](O)[C@H]2O)OC=C2C(=O)OCC[C@H]21` [Sweroside, sweroside], the “effect on alkaline phosphatase (ALP) activity of UMR 106 cells” value [4] was “excellent bioactivities”, the AUC(0-inf) ([5]; 3 g/kg) was 452 ± 50.3 ng·h/mL and the AUC(0-t) ([5]; 3 g/kg) was 313 ± 39.1 ng·h/mL. The Cmax ([5]; 3 g/kg) was 35.6 ± 2.27 ng/mL, the MRT inf ([5]; 3 g/kg) was 31.7 ± 4.64 h and the Tmax ([5]; 3 g/kg) was 1.17 ± 0.26 h. For the same molecule, the half-life ([5]; 3 g/kg) was 21.3 ± 3.33 h, the AUC(0-inf) ([5]; 6 g/kg) was 690 ± 110 ng·h/mL and the AUC(0-t) ([5]; 6 g/kg) was 598 ± 59.4 ng·h/mL. For the same molecule, the Cmax ([5]; 6 g/kg) was 135 ± 10.2 ng/mL, the MRT inf ([5]; 6 g/kg) was 16.7 ± 7.3 h and the MRT last ([5]; 6 g/kg) was 8.31 ± 2.11 h. It also gave a half-life ([5]; 6 g/kg) of 13.8 ± 7.36 h, an AUC(0-inf) ([5]; 12 g/kg) of 1330 ± 97.9 ng·h/mL and an AUC(0-t) ([5]; 12 g/kg) of 1150 ± 35.3 ng·h/mL. For the same molecule, the Cmax ([5]; 12 g/kg) was 301 ± 19.4 ng/mL, the MRT inf ([5]; 12 g/kg) was 19.2 ± 6.86 h and the MRT last ([5]; 12 g/kg) was 8.25 ± 0.83 h. The Tmax ([5]; 12 g/kg) was 0.5 h, the half-life ([5]; 12 g/kg) was 23.7 ± 12.3 h and the “effect on adipogenesis of 3T3-L1 cells” value [2] was “excellent bioactivities”. For the same molecule, the “effect on proliferation of UMR 106 cells” value [6] was “excellent bioactivities”.

Molecule `COc1ccc2c(c1O)-c1c(O)c(OC)cc3c1[C@H](C2)[N+](C)(C)CC3` [Magnoflorine, magnoflorine] has an AUC(0-inf) ([3]; serum, 3 g/kg) of 320 ± 96.9 ng·h/mL, an AUC(0-t) ([3]; serum, 3 g/kg) of 264 ± 76.2 ng·h/mL and a Cmax ([3]; serum, 3 g/kg) of 31.8 ± 4.77 ng/mL. The MRT inf ([3]; serum, 3 g/kg) was 26.2 ± 8.51 h, the MRT last ([3]; serum, 3 g/kg) was 16.4 ± 4.54 h and the Tmax ([3]; serum, 3 g/kg) was 0.5 h. For the same molecule, the half-life ([3]; serum, 3 g/kg) was 20 ± 8.43 h, the AUC(0-inf) ([3]; serum, 6 g/kg) was 4610 ± 572 ng·h/mL and the AUC(0-t) ([3]; serum, 6 g/kg) was 2600 ± 249 ng·h/mL. It also gave a Cmax ([3]; serum, 6 g/kg) of 652 ± 64.6 ng/mL, an MRT inf ([3]; serum, 6 g/kg) of 44.4 ± 6.88 h and an MRT last ([3]; serum, 6 g/kg) of 17.3 ± 0.63 h. It also gave a Tmax ([3]; serum, 6 g/kg) of 0.67 ± 0.26 h, a half-life ([3]; serum, 6 g/kg) of 21.8 ± 4.2 h and an AUC(0-inf) ([3]; serum, 12 g/kg) of 3480 ± 121 ng·h/mL. It also gave an AUC(0-t) ([3]; serum, 12 g/kg) of 3330 ± 130 ng·h/mL, a Cmax ([3]; serum, 12 g/kg) of 1160 ± 102 ng/mL and an MRT inf ([3]; serum, 12 g/kg) of 9.43 ± 0.47 h. The MRT last ([3]; serum, 12 g/kg) was 6.67 ± 0.32 h, the Tmax ([3]; serum, 12 g/kg) was 1.67 ± 0.26 h and the half-life ([3]; serum, 12 g/kg) was 13.4 ± 0.75 h.

With corylin the “AUC0–∞” value ([1]; 3 g/kg) was 86.37 ± 67.67 ng·h/mL, the AUC(0-t) ([1]; 3 g/kg) was 10.62 ± 3.66 ng·h/mL and the “MRT0–t” value ([1]; 3 g/kg) was 5.60 ± 5.20 h. The “MRT0–∞” value ([1]; 3 g/kg) was 51.11 ± 29.69 h, the “AUC0–∞” value ([1]; 6 g/kg) was 227.72 ± 52.75 ng·h/mL and the AUC(0-t) ([1]; 6 g/kg) was 166.50 ± 26.45 ng·h/mL. The “MRT0–t” value ([1]; 6 g/kg) was 16.55 ± 4.24 h, the “MRT0–∞” value ([1]; 6 g/kg) was 33.27 ± 11.40 h and the “AUC0–∞” value ([1]; 12 g/kg) was 442.39 ± 107.76 ng·h/mL. The AUC(0-t) ([1]; 12 g/kg) was 386.15 ± 84.00 ng·h/mL, the “MRT0–t” value ([1]; 12 g/kg) was 14.73 ± 1.76 h and the “MRT0–∞” value ([1]; 12 g/kg) was 20.65 ± 3.78 h.
